Measured values as given in US20140179519A1, “N-THIO-ANTHRANILAMIDE COMPOUNDS AND THEIR USE AS PESTICIDES” (BASF SE, priority 2011, published 2014).

Legend:
[1] = tested on: Orchid thrips (Dichromothrips corbetti); assay: CE.1 Orchid thrips floral-immersion test, comparison with comparative compounds; type: in vivo; settings: for % activity (mortality of Orchid thrips in %, vs. untreated control): floral immersion, 72 hours after treatment
Method: (§1) The activity summarized in the tables hereinbelow are given as percentage of mortality in comparison with untreated control
Dichromothrips corbetti adults used for bioassay were obtained from a colony maintained continuously under laboratory conditions. For testing purposes, the test compound is diluted in a 1:1 mixture of acetone:water (vol:vol), plus 0.01% vol/vol Alkamuls® EL 620 surfactant.
Thrips potency of each compound was evaluated by using a floral-immersion technique. Plastic petri dishes were used as test arenas. All petals of individual, intact orchid flowers were dipped into treatment solution and allowed to dry. Treated flowers were placed into individual petri dishes along with about 20 adult thrips. The petri dishes were then covered with lids. All test arenas were held under continuous light and a temperature of about 28° C. for duration of the assay. After 3 days, the numbers of live thrips were counted on each flower, and along inner walls of each petri dish. The percent mortality was recorded 72 hours after treatment.

[2] = tested on: Rice green leafhopper (Nephotettix virescens); assay: CE.2 Rice green leafhopper spray test on rice seedlings, comparison with comparative compound; type: in vivo; settings: for % activity (mortality of Rice green leafhopper in %, vs. untreated control): sprayed rice seedlings, after 72 hours
Method: as §1
Rice seedlings were cleaned and washed 24 hours before spraying. The active compounds were formulated in 50:50 acetone:water (vol:vol), and 0.1% vol/vol surfactant (EL 620) was added. Potted rice seedlings were sprayed with 5 ml test solution, air dried, placed in cages and inoculated with 10 adults. Treated rice plants were kept at about 28-29° C. and relative humidity of about 50-60%. Percent mortality was recorded after 72 hours.

[3] = percent mortality 72 hours after treatment

SMILES | % activity (mortality of Orchid thrips in %, vs. untreated control) ([1]; 10 ppm active ingredient) [%] | % activity (mortality of Orchid thrips in %, vs. untreated control) ([1]; 100 ppm active ingredient) [%] | % activity (mortality of Orchid thrips in %, vs. untreated control) ([1]; 300 ppm active ingredient) [%] | activity against Orchid thrips in comparison with comparative compound CC-1 [1, 3] | activity against Orchid thrips in comparison with comparative compound CC-2 [1, 3] | % activity (mortality of Rice green leafhopper in %, vs. untreated control) ([2]; 100 ppm active ingredient) [%] | % activity (mortality of Rice green leafhopper in %, vs. untreated control) ([2]; 300 ppm active ingredient) [%] | % activity (mortality of Rice green leafhopper in %, vs. untreated control) ([2]; 500 ppm active ingredient) [%] | activity against Rice green leafhopper in comparison with comparative compound CC-2 ([2]; percent mortality after 72 hours)
Cc1cc(Cl)cc(C(=O)N=S(C)C)c1NC(=O)c1cc(C(F)F)nn1-c1ncccc1Cl [Compound 4] | 95 | 100 | 100 | superior activity |  |  |  |  | 
Cc1cc(Cl)cc(C(=O)N=S(C(C)C)C(C)C)c1NC(=O)c1cc(C(F)F)nn1-c1ncccc1Cl [Compound 25] | 95 | 100 | 100 |  | superior activity | 50 | 100 | 100 | superior activity
